Measured values as given in US10294228B2, “Breathing control modulating compounds, and methods of making and using same” (NEURAD LTD., priority 2015, dated 2019).
Where a name gives a salt, the structure may show the parent alone.

System: anesthetized rats
Test: Anesthetized rat spirometry screening assay (ventilatory activity, minute volume)
Type: in vivo
Settings: increase in minute volume (VE); for change in vivo at 0.3 mg/kg: 0.3 mg/kg IV bolus, read-out: VE % Inc @ 0.3 mg/kg IV; for change in vivo at 3 mg/kg: 3.0 mg/kg IV bolus, read-out: VE % Inc @ 3.0 mg/kg IV
Experimental: Anesthetized rats provide a quick method of screening compounds for respiratory and cardiovascular activity.
Rats were initially anesthetized with 3% isoflurane (inhaled) and femoral artery and vein cannulas were surgically inserted. Once cannulated, the rats were transitioned to urethane anesthesia (1.5 g/kg; i.v.) and a tracheal cut-down was performed. After placing the tracheal cannula, it was connected to a pneumotachometer to record respiratory airflow from which respiratory rate (RR), tidal volume (VT), and their product minute volume (MV, also termed VE) were derived. After the surgical preparation was complete, animals were allowed to stabilize for 30 minutes while respiratory rate, tidal volume, minute volume, blood pressure and heart rate were recorded continuously. Arterial blood gases (ABG) were obtained from arterial blood collected from the femoral artery. ABG measurements were taken before and 6 minutes after vehicle and each dose of compound administered. Compounds being screened were administered via bolus injections through the venous cannula followed by a saline flush (total time of administration is approximately 30 seconds), and the animal was monitored for at least 6 minutes for changes in cardiovascular efforts. Compounds were prepared in formulations identified to ensure optimal solubility. As such, vehicle controls were matched for the formulation of each compound tested. Dosing of the compounds being screened was conducted at 0.1 and/or 0.3 mg/kg and/or 3 mg/kg The next dose was not administered until all cardiovascular and respiratory measures had returned to baseline levels. The positive control compounds used were N-[4,6-di-(n-propylamino)-[1,3,5]triazin-2-yl]-N,O-dimethyl-hydroxylamine or N-[2,6-di-(n-propylamino)-[1,3]pyrimidin-4-yl]-N,O-dimethyl-hydroxylamine (both administered at the end of each screening experiment (0.3 mg/kg dose) to validate the experiment and also to serve as a measure with which the compound being screened could be compared.
Data were analyzed by collecting cardiovascular and respiratory data in 30 second averages (BINs). Data were plotted 2 minutes before challenge and then 6 minutes after challenge.

| SMILES | change in vivo at 0.3 mg/kg [%] | change in vivo at 3 mg/kg [%] |
| --- | --- | --- |
| CCCNc1nc(NC)nc2c(NC3Cc4ccccc4C3O)nc(NC)nc12 (racemic) [Compound 81, 2-(2,6-Bis-methylamino-8-propylamino-pyrimido[5,4-d]-pyrimidin-4-ylamino)-indan-1-ol] | 50 | 72 |
| CCCNc1nc(NC)nc2c(NCCO)nc(NC)nc12 [Compound 4a, 2-(2,6-Bis-methylamino-8-propylamino-pyrimido[5,4-d]pyrimidin-4-ylamino)-ethanol hydrochloride] | 90 |  |
| CCCNc1nc(NC)nc2c(N(C)CCO)nc(NC)nc12 [Compound 6a, 2-[(2,6-Bis-methylamino-8-propylamino-pyrimido[5,4-d]pyrimidin-4-yl)-methyl-amino]-ethanol hydrochloride] | 37 |  |
| CCCNc1nc(NC)nc2c(NCCCO)nc(NC)nc12 [Compound 8a, 3-(2,6-Bis-methylamino-8-propylamino-pyrimido[5,4-d]pyrimidin-4-ylamino)-propan-1-ol hydrochloride] | 31 |  |
| CCCNc1nc(NC)nc2c(NCC(C)O)nc(NC)nc12 (stereo not drawn) [Compound 10a, 1-(2,6-Bis-methylamino-8-propylamino-pyrimido[5,4-d]-pyrimidin-4-ylamino)-propan-2-ol hydrochloride] | 93 |  |
| CCCNc1nc(NC)nc2c(NC[C@H](C)O)nc(NC)nc12 [Compound 12a, (S)-1-(2,6-Bis-methylamino-8-propylamino-pyrimido[5,4-d]pyrimidin-4-ylamino)-propan-2-ol hydrochloride] | 114 |  |
| CCCNc1nc(NC)nc2c(NC[C@@H](C)O)nc(NC)nc12 [Compound 14a, (R)-1-(2,6-Bis-methylamino-8-propylamino-pyrimido[5,4-d]pyrimidin-4-ylamino)-propan-2-ol Hydrochloride] | 88 |  |
| CCCNc1nc(NC)nc2c(NC(C)(C)CO)nc(NC)nc12 [Compound 16a, 2-(2,6-Bis-methylamino-8-propylamino-pyrimido[5,4-d]-pyrimidin-4-ylamino)-2-methyl-propan-1-ol hydrochloride] | 80 |  |
| CCCNc1nc(NC)nc2c(N[C@@H](C)CO)nc(NC)nc12 [Compound 18a, (S)-2-(2,6-Bis-methylamino-8-propylamino-pyrimido[5,4-d]-pyrimidin-4-ylamino)-propan-1-ol Hydrochloride] | 50 |  |
| CCCNc1nc(NC)nc2c(N[C@H](C)CO)nc(NC)nc12 [Compound 20a, (R)-2-(2,6-Bis-methylamino-8-propylamino-pyrimido[5,4-d]-pyrimidin-4-ylamino)-propan-1-ol Hydrochloride] | 107 |  |
| CCCNc1nc(NC)nc2c(NCC(O)C(F)(F)F)nc(NC)nc12 (stereo not drawn) [Compound 22a, 3-(2,6-Bis-methylamino-8-propylamino-pyrimido[5,4-d]pyrimidin-4-ylamino)-1,1,1-trifluoro-propan-2-ol Hydrochloride] | 102 |  |
| CCCNc1nc(NC)nc2c(NCC(O)CC)nc(NC)nc12 (stereo not drawn) [Compound 24a, 1-(2,6-Bis-methylamino-8-propylamino-pyrimido[5,4-d]pyrimidin-4-ylamino)-butan-2-ol Hydrochloride] | 100 | 121 |
| CCCNc1nc(NC)nc2c(NC(C)C(C)O)nc(NC)nc12 (stereo not drawn) [Compound 26a, 3-(2,6-Bis-methylamino-8-propylamino-pyrimido[5,4-d]pyrimidin-4-ylamino)-butan-2-ol Hydrochloride] | 39 | 143 |
| CCCNc1nc(NCC)nc2c(NCCO)nc(NCC)nc12 [Compound 27a, 2-(2,6-Bis-ethylamino-8-propylamino-pyrimido[5,4-d]pyrimidin-4-ylamino)-ethanol Hydrochloride] | 110 |  |
| CCCNc1nc(NCC(F)(F)F)nc2c(NCCO)nc(NCC(F)(F)F)nc12 [Compound 28a, 2-[8-propylamino-2,6-bis-(2,2,2-trifluoroethylamino)-pyrimido[5,4-d]pyrimidin-4-ylamino]ethanol hydrochloride] | 16 |  |
| CCCNc1nc(NCC)nc2c(NCC(C)(C)O)nc(NCC)nc12 [Compound 32a, 1-(2,6-Bis-ethylamino-8-propylamino-pyrimido[5,4-d]-pyrimidin-4-ylamino)-2-methyl-propan-2-ol hydrochloride] | 201 |  |

| SMILES | change in vivo at 0.3 mg/kg [%] | change in vivo at 3 mg/kg [%] |
| --- | --- | --- |
| CCCNc1nc(NCC(F)F)nc2c(NCC(C)(C)O)nc(NCC(F)F)nc12 [Compound 33a, 1-[2,6-Bis-(2,2-difluoro-ethylamino)-8-propylamino-pyrimido[5,4-d]-pyrimidin-4-ylamino]-2-methyl-propan-2-ol Hydrochloride] | 23 | 115 |
| CCCNc1nc(NCC(F)(F)F)nc2c(NCC(C)(C)O)nc(NCC(F)(F)F)nc12 [Compound 34a, 2-Methyl-1-[8-propylamino-2,6-bis-(2,2,2-trifluoro-ethylamino)-pyrimido[5,4-d]pyrimidin-4-ylamino]-propan-2-ol Hydrochloride] | 2 |  |
| CNc1nc(NCC(C)(C)O)c2nc(NC)nc(NCC(F)F)c2n1 [Compound 36a, 1-[8-(2,2-Difluoro-ethylamino)-2,6-bis-methylamino-pyrimido[5,4-d]pyrimidin-4-ylamino]-2-methyl-propan-2-ol Hydrochloride] | 34 |  |
| CNc1nc(NCC(C)(C)O)c2nc(NC)nc(NCc3ncccn3)c2n1 [Compound 38a, 1-{2,6-Bis-methylamino-8-[(pyrimidin-2-ylmethyl)-amino]-pyrimido[5,4-d]pyrimidin-4-ylamino}-2-methyl-propan-2-ol Hydrochloride] | 18 | 27 |
| CC[C@@H](C)Nc1nc(NC)nc2c(NCC(C)(C)O)nc(NC)nc12 [Compound 40a, 1-[8-((R)-sec-Butylamino)-2,6-bis-methylamino-pyrimido[5,4-d]-pyrimidin-4-ylamino]-2-methyl-propan-2-ol Hydrochloride] | 79 | 158 |
| CC[C@H](C)Nc1nc(NC)nc2c(NCC(C)(C)O)nc(NC)nc12 [Compound 42a, 1-[8-((S)-sec-Butylamino)-2,6-bis-methylamino-pyrimido[5,4-d]-pyrimidin-4-ylamino]-2-methyl-propan-2-ol Hydrochloride] | 76 | 149 |
| CNc1nc(NCC(C)(C)O)c2nc(NC)nc(NCc3ccccc3)c2n1 [Compound 44a, 1-(8-Benzylamino-2,6-bis-methylamino-pyrimido[5,4-d]pyrimidin-4-ylamino)-2-methyl-propan-2-ol Hydrochloride] | 122 | 132 |
| CNc1nc(NCC(C)(C)O)c2nc(NC)nc(NCC3CC3)c2n1 [Compound 46a, 1-[8-(Cyclopropylmethyl-amino)-2,6-bis-methylamino-pyrimido[5,4-d]pyrimidin-4-ylamino]-2-methyl-propan-2-ol Hydrochloride] | 79 | 203 |
| CCNc1nc(NCC(C)(C)O)c2nc(NCC)nc(NCC(F)F)c2n1 [Compound 47a, 1-[8-(2,2-difluoro-ethylamino)-2,6-bis-ethylamino-pyrimido[5,4-d]pyrimidin-4-ylamino]-2-methyl-propan-2-ol hydrochloride] | 31 |  |
| CNc1nc(NCC(C)(C)O)c2nc(NC)nc(NC)c2n1 [Compound 48a, 2-Methyl-1-(2,6,8-tris-methylamino-pyrimido[5,4-d]-pyrimidin-4-ylamino)-propan-2-ol Hydrochloride] | 20 | 78 |
| CCNc1nc(NCC(C)(C)O)c2nc(NCC)nc(NCC)c2n1 [Compound 49a, 2-Methyl-1-(2,6,8-tris-ethylamino-pyrimido[5,4-d]-pyrimidin-4-ylamino)-propan-2-ol Hydrochloride] | 127 | 183 |
| CNc1nc(NCCO)c2nc(NC)nc(NC)c2n1 [Compound 52a, 2-(2,6,8-Tris-methylamino-pyrimido[5,4-d]pyrimidin-4-ylamino)-ethanol Hydrochloride] | 26 |  |
| CNc1nc(NCC2CC2)c2nc(NC)nc(NCCO)c2n1 [Compound 54a, 2-[8-(Cyclopropylmethyl-amino)-2,6-bis-methylamino-pyrimido[5,4-d]pyrimidin-4-ylamino]-ethanol Hydrochloride] | 165 |  |
| CNc1nc(NCCOC)c2nc(NC)nc(NCCO)c2n1 [Compound 56a, 2-[8-(2-Methoxy-ethylamino)-2,6-bis-methylamino-pyrimido[5,4-d]pyrimidin-4-ylamino]-ethanol Hydrochloride] | 2 |  |
| C#CCNc1nc(NC)nc2c(NCCO)nc(NC)nc12 [Compound 58a, 2-(2,6-Bis-methylamino-8-prop-2-ynylamino-pyrimido[5,4-d]pyrimidin-4-ylamino)-ethanol Hydrochloride] | 10 |  |
